In PubChem BioAssay AID504626 (Southern Research Specialized Biocontainment Screening …, 2011):

Tested on: human PBMC, CCR5-tropic HIV-1 replication, RT activity
Assay: inhibitors of CCR5-tropic HIV-1 replication in PBMCs, dose response, cell-based, human PBMC, R5-tropic strain, set 3 (AID 504626)

Work on `Cc1c2c(=O)n(-c3nc4ccccc4s3)nc-2cc(O)n1Cc1ccccc1` yielded an IC50 of 1570 nM.
